From patent publication US12324810B2, “3, 7-diamino-10H-phenothiazine salts and their use” (WisTa Laboratories Ltd., priority 2006, dated 2025)
Read-outs that look alike come from different tables or passages of the source.

Legend:
[1] = target: T1, full-length tau (T40) in fibroblast cells (3T6) (Homo sapiens, UniProt P10636); assay: Cell-based assay for establishing EC50 (generation of the 12 kD fragment)
T1 construct: fibroblast cells (3T6) express full-length tau (“T40”) under control of an inducible promoter; low constitutive levels of the PHF-core tau fragment (12 kD fragment); expressed in transfected cells; host or cells: 3T6 fibroblast cells
T1 sequence (P10636 2-441 isoform P10636-8 limits assumed): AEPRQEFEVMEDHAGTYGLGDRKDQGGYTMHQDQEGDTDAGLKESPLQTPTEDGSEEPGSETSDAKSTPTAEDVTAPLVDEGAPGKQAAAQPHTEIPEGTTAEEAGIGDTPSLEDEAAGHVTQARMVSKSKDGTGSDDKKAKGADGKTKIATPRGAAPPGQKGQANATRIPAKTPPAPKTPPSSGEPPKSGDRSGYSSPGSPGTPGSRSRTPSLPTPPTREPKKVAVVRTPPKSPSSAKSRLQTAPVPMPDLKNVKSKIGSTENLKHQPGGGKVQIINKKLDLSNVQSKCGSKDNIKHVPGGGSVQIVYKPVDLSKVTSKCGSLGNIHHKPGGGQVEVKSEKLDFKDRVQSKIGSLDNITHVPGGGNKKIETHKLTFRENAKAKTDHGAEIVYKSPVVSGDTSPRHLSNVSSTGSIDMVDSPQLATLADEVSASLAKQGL
From the text: Briefly, fibroblast cells (3T6) express full-length tau (“T40”) under control of an inducible promoter, and low constitutive levels of the PHF-core tau fragment (12 kD fragment). When T40 expression is induced, it undergoes aggregation-dependent truncation within the cell, N-terminally at ˜αα295 and C-terminally at ˜αα390, thereby producing higher levels of the 12 kD PHF-core domain fragment. […] Indeed, the quantitation of inhibitory activity of compounds with respect to proteolytic generation of the 12 kD fragment within cells can be described entirely in terms of the same parameters that describe inhibition of tau-tau binding in vitro. That is, the extent of proteolytic generation of the 12 kD fragment within cells is determined entirely by the extent of tau-tau binding through the repeat domain. The availability of the relevant proteases within the cell is non-limiting.
Results are expressed as the concentration at which there is a 50% inhibition of generation of the 12 kD fragment. This is referred to as the EC50 value.

[2] = Partition coefficient, n-octanol/water, visible spectrophotometry; type: physicochemical
Procedure: In this study, aqueous solutions of selected compounds were shaken with n-octanol and aliquots concentrations in each phase determined by visible spectrophotometry. The log10P was then calculated for each compound, using the following formula:

[3] = test system: fibroblast cells (3T6); type: cell-based; settings: therapeutic index, RxI = LD50/EC50
Procedure: Toxicity of the compounds described herein was assessed in the cell based assay used to assess EC50. […] Alternatively, a kit from Promega UK (CytoTox 96) was used, again according to the manufacturer's instructions.

[4] = Stability in aqueous solution (percent reduced form by absorbance at 610 nm and 665 nm); type: physicochemical
Procedure: The compounds were weighed into universal containers. Enough water was added to yield a 1 mM solution, and the mixture stirred to dissolve the solid. The absorbance was determined at 610 nm and 665 nm for 50 μL samples (in triplicate) of each of the solutions at various time points. The initial time point taken was at 10 minutes as the compounds took time to dissolve completely. A UV/visible spectrum was also recorded at time points 20 minutes, 3 hours, and 18 hours.

[5] = Stability of the solid form in storage; type: physicochemical
Procedure: A batch of N,N,N′,N′-tetramethyl-10H-phenothiazine-3,7-diamine bis(hydrogen bromide) was prepared in April 2006 and analysed by NMR. […] The colour of the solid remained consistent over time. It appears that the molecule, in this form, is stable under these conditions over this time period.

[6] = concentration at which there is a 50% inhibition of generation of the 12 kD fragment, 3T6 cells, read-out: EC50

Nc1ccc2c(c1)Sc1cc(N)ccc1N2 [Compound B4, 3,7-Diamino-phenothiazine bis(hydrogen chloride)]
EC50 [1, 6]: 2.23 µM

CN(C)c1ccc2c(c1)Sc1cc(N(C)C)ccc1N2 [Compound B6, N,N,N′,N′-Tetramethyl-10H-phenothiazine-3,7-diamine bis(hydrogen iodide)]
Log10P [2]: −0.498 | RxI [3]: 303 | time remaining substantially stable (>50% reduced form) ([4]; 1 mM solution in water): ~3 h | rate of autoxidation ([4]; aqueous solution, compared to the chloride compound (Compound B3)): slower | EC50 [1]: 0.38 µM

CN(C)c1ccc2c(c1)Sc1cc(N(C)C)ccc1N2 [N,N,N′,N′-Tetramethyl-10H-phenothiazine-3,7-diamine bis(hydrogen bromide]
stability of solid after storage (NMR, colour) ([5]; solid, 10 months of storage in the dark at room temperature): stable

CN(C)c1ccc2c(c1)Sc1cc(N(C)C)ccc1N2 [Compound B3, N,N,N′,N′-Tetramethyl-10H-phenothiazine-3,7-diamine bis(hydrogen chloride)]
Log10P [2]: −0.13 | RxI [3]: 88 | EC50 [1, 6]: 0.5 µM | state of solid form after storage ([5]; solid form, after 2 years in storage): substantially reduced
